# According to ChEMBL document CHEMBL3507680, “University of Dundee, Gates Library screen for HepG2 cell viability”:
# Assay: Human HepG2 cell viability assay in 384 well format
# Type: toxicity, cell-based
# Set-up: dose 125 nL, time 70.5 hour; concentration not given beside the values
# Settings: HepG2 cells, read-out: Inhibition
row,SMILES,cytotoxicity at 70.5 h [%]
1,CCOC(=O)C1(O)CCN(C(=O)Nc2cccc(F)c2)CC1,4.4
2,CCC(CNC1CCN(C(C)=O)CC1)Oc1cccc(C)c1 (stereo not drawn),-6.04
3,Cc1ccc(CN(C)C(=O)CN2CCCC(Cn3cncn3)C2)o1 (stereo not drawn),-5.76
4,Cc1ccc(CNC(=O)NCc2ccco2)s1,-24.6
5,O=C1CCSCC(C(=O)NCc2nc(-c3ccccc3)no2)N1 (stereo not drawn),-11.9
6,CNS(=O)(=O)c1ccc(CNC(=O)c2c(C)oc(C)c2C)cc1,-12.9
7,Cc1nnc2n1CCN(C(=O)c1cnc3c(cnn3C(C)C)c1)C2,25.5
8,Cc1cccc(OCCNC(=O)C(C)S(=O)(=O)c2ccccn2)c1 (stereo not drawn),-2.85
9,COc1ccc(C(=O)O)c(OCC(=O)NC(C)c2ccccc2)c1 (stereo not drawn),-5.77
10,CCc1nc(CN2CCCN(C(=O)c3ccnc(C)n3)CC2)cs1,3.9
11,CCOc1ccccc1CNC(=O)N1CCC(n2cncn2)CC1,-11.8
12,CC(=O)c1cccc(NC(=O)Cn2nc(-c3cccs3)oc2=O)c1,10.5
13,Cc1nn(C)c(C)c1C(=O)NCc1ccnc(OCC(F)(F)F)c1,-4.39
14,Cc1c(-c2c(-c3ccccc3)ncn2[C@@H](C(=O)O)[C@H](C)O)cnn1C,3.82
15,Cc1n[nH]c2c1C(c1ccc(Br)cc1)SCC(=O)N2 (stereo not drawn),-8.1
16,CNC(=O)c1cn2cc(-c3ccccc3Cl)n(CC=C(C)C)c(=O)c2n1,35.1
17,CS(=O)(=O)N1CCOCC12CCN(c1nncs1)CC2,5.03
18,CCc1ncc2c(n1)CN(c1nc(C)ccc1C(=O)O)C2,-10.8
19,COc1ccc(C2CC(=O)Oc3cc(C)[nH]c(=O)c32)cc1 (stereo not drawn),-2.66
20,CC(C)OC(=O)N1C[C@H]2CC[C@@H]1CN(C(=O)c1ccccc1)C2,-2.95
21,CC(C)Nc1nc2c(s1)C(=O)CN(C)C2,4.07
22,COc1cc(CNc2cc(-c3nncn3C)ccn2)cc(OC)c1OC,-3.3
23,Cn1ncc2c(=O)[nH]c(CN3CCCC3CCc3ccccc3)nc21 (stereo not drawn),-1.66

row,SMILES,cytotoxicity at 70.5 h [%]
1,Cc1cccc(N2CCN(C(=O)NC(C)c3nncn3C)CC2)c1 (stereo not drawn),20.1
2,CSc1ccc(-n2nnc(C(=O)O)c2-c2ccccn2)cc1,11.2
3,Cc1cc(NC(=O)C2CCN(c3nnc(C)c(C)c3C#N)CC2)no1,0.58
4,Cc1ccc2c(c1)OCCCC2NC1CCN(C)CC1 (stereo not drawn),-0.243
5,O=C(CCn1cnnc1)N1CCCC(c2ncc[nH]2)C1 (stereo not drawn),-2.12
6,CCOc1ccc(C(=O)CCC(=O)NCc2csc(N)n2)cc1C,-11.5
7,O=C(NC1CCN(C2CC2)CC1)N1CCN(c2cnccn2)CC1,3.56
8,Cc1ccc(CN2C[C@@H]3CN(c4ncc(F)cn4)C[C@@H]3C2)cc1,-1.01
9,CCNC(=O)[C@@H]1C[C@H](NC(=O)c2cc(=O)[nH]c3ccc(C)cc23)CN1C,-7.81
10,COc1cccc(CC2CN(C(=O)c3ccnn3C)CCO2)c1 (stereo not drawn),-4.96
11,Cc1nn(CC(C)C)c(C)c1CC(=O)N1CCCC(CNS(C)(=O)=O)C1 (stereo not drawn),-13.2
12,Cc1nc(C)n(CCC(=O)N2CCc3ncc(Cl)cc3C2)n1,6.03
13,Cn1cc(-c2nnn3c2COC(CNCc2nccs2)C3)cn1 (stereo not drawn),-25.2
14,CCN(C(=O)CN1CCCC1c1cccs1)c1ccccc1C (stereo not drawn),30.3
15,CC(Cn1cnc2cn(C)nc2c1=O)Oc1cccnc1 (stereo not drawn),20.4
16,O=C(NCc1nnc2n1CCCCC2)N(Cc1ccncc1)C1CC1,-4.16
17,Cc1nc(CN(C)CC2CCCN(CCc3ccc(Cl)cc3)C2)no1 (stereo not drawn),0.0181
18,CC(Nc1ncnc2c1CCNCC2)c1nc2c(s1)CCCC2 (stereo not drawn),-5.82
19,Cn1ccnc1CN1CCC2(CC1)Cc1ccccc1CNC2=O,-3.2
20,Cc1ncc2c(n1)CN(CC1CCCCO1)CC2 (stereo not drawn),5.6
21,COc1ccc(CN2C[C@@H](CN(C)C)[C@@H](CO)C2)cc1CN1CCCC1,5.87
22,CCC(CC)c1cc(CNC(=O)N2CCC[C@@H]2CO)on1,15.7
23,Cc1nn(C)c2c(=O)n(CC(=O)NC3CCCCC3)ccc12,-1.28

row,SMILES,cytotoxicity at 70.5 h [%]
1,NC(=O)CN(Cc1cccc(Oc2ccccc2)c1)C(=O)C1CC1,-4.97
2,CN(Cc1cccnc1)C[C@H]1OC[C@@H]2CCN(C(=O)C3CC3)C[C@@H]21,-9.16
3,COCCn1cc(NC(=O)NCC(c2cccc(F)c2)N(C)C)cn1 (stereo not drawn),-2.22
4,Cc1cc2nc(C(C)C)cc(NCCNc3ncccc3C)n2n1,12.1
5,O=C([C@H]1CCCO1)N1CCCC2(COCCN(c3ccccc3)C2)C1 (stereo partly drawn),-10.4
6,Cn1c(Cn2ccnc2)nnc1C1CCCN(CC(C)(C)C)C1 (stereo not drawn),-8.29
7,O=C(O)c1cc(-c2ccoc2)cc(S(=O)(=O)N2CCSCC2)c1,-4.7
8,CSCc1cc(F)ccc1CNCc1cccnc1,-6.28
9,CCS(=O)(=O)CCN1CCN(C2CCC(C(C)C)CC2)CC1 (stereo not drawn),11.5
10,CC(C)N1CCC(O)(CNC(=O)CC2OCCc3ccccc32)CC1 (stereo not drawn),4.01
11,Cc1n[nH]c(C2CN(C(=O)c3ccco3)CCO2)n1 (stereo not drawn),-4.63
12,Cc1ccn(-c2cccc(C(=O)N3CCCC(n4ccnc4C)C3)c2)n1 (stereo not drawn),-11.3
13,CN1CCN(C2CCN(CC(O)c3ccccc3)CC2)C1=O (stereo not drawn),4.73
14,COc1ccc(Cc2ncc3c(n2)CN(C(=O)C(C)(C)C)C3)cc1,-1.36
15,Cc1ccc(OCCCNC(=O)C(C)Sc2nncn2C)cc1 (stereo not drawn),-12.1
16,Cc1nn(CC(=O)N2CCCC2Cn2cccn2)c(C)c1Cl (stereo not drawn),9.12
17,CN1CCCC(CCC(=O)N2CCc3onc(C(=O)N(C)C)c3C2)C1 (stereo not drawn),-1.71
18,CSC(C)C(=O)N1CCN(CCO)CC1 (stereo not drawn),-6.94
19,c1cnc(N2C[C@H]3CCC[C@@H](CN4CCCC4)[C@H]3C2)nc1,22.9
20,CCS(=O)(=O)N1CCC2(CN(c3cccc(C)n3)C2)C1,-4.08
21,COc1ccccc1OC1CN(C(=O)c2c(C)nc3ccc(C)cn23)C1,-1.56
22,CN1CCN(Cc2cn3c(n2)CN(Cc2cccnc2)CC3)CC1,19.4
23,Clc1cccc(Cl)c1CN(CCCN1CCOCC1)Cc1cccnc1,-11.4

row,SMILES,cytotoxicity at 70.5 h [%]
1,O=C(CCn1c(C(F)(F)F)cc2cccnc21)N1CCOCC1,0.815
2,O=C(c1ccc2cc[nH]c2c1)N1CCCN(Cc2cscn2)CC1,-2.03
3,Cc1sc(-c2ccco2)nc1C(=O)N1CCCC1Cn1cccn1 (stereo not drawn),-1.73
4,CC(C)N(CCCNC(=O)C1CCOCC1)S(C)(=O)=O,-5.89
5,CC(C)c1nc2n(n1)CC(Nc1ncnc3ccccc13)CC2 (stereo not drawn),-13
6,CCC1CN(C(=O)c2ccc(Cl)cc2O)CCN1C(C)C (stereo not drawn),-6.93
7,CC(=O)N(CCc1nc(-c2cc(C(N)=O)co2)cs1)C(C)C,2.32
8,Cc1nc2c(c(NCCCN3CCOCC3)n1)CCN(C)C2,15.4
9,CN1C(=N)NC(=O)/C1=C\c1ccc(-c2ccc(F)cc2)o1,28.8
10,O=C(CCc1cn[nH]c1)N1C[C@@H](CN2CCOCC2)C[C@H](CO)C1,8.69
11,O=S(=O)(N1CCCC1)N1CC(c2ccnc(Nc3ccccn3)n2)C1,8.07
12,COCCCN(Cc1ccc(F)cc1Cl)C1CCS(=O)(=O)C1 (stereo not drawn),1.64
13,CC(=O)N(Cc1noc(C)n1)C1CCN(CC2CCCC2)C1 (stereo not drawn),23.3
14,O=C(c1sccc1-n1cnnn1)N1CCC(Cc2ccccc2)CC1,-4.62
15,NC(=O)C1CN(C(=O)Nc2ccccc2OCC(F)(F)F)CCO1 (stereo not drawn),-4.53
16,CCCNC(=O)CCOc1cccc(F)c1,-3.12
17,COC(=O)NCC(=O)NCC(C)(C)c1cccc(Br)c1,-0.269
18,O=C1CCCC2=C1C(c1ccc(Cl)cc1Cl)Nc1nonc1N2 (stereo not drawn),-1.65
19,O=C(c1cccnc1-c1ccoc1)N1C[C@H]2CC[C@@H]1C2,-10.4
20,CCCS(=O)(=O)N1CCC(NC(=O)c2cc(CC)c(C)s2)CC1,-0.636
21,O=C(CCNC(=O)c1cccc(OC(F)F)c1)Nc1cccnc1,-3.8
22,CN1CC(C(=O)N2CCC(Oc3ccccc3Cl)CC2)CC1=O (stereo not drawn),-1.46
23,Cc1cc(NCc2ccco2)nc2[nH]nc(N)c12,-3.79

row,SMILES,cytotoxicity at 70.5 h [%]
1,COc1c(F)cccc1C(=O)NC(C)c1cnn(C)c1 (stereo not drawn),-8.49
2,CN1CCC(N2CCOC[C@H]2c2nc(C(C)(C)C)c[nH]2)CC1,0.765
3,Cc1nc(NC2CCCC2)cc(C2CCN2C(=O)c2cccnc2)n1 (stereo not drawn),-9.69
4,c1cc(-c2ccc3nc(C4CCN(CC5CC5)CC4)nn3c2)cs1,-8.2
5,Cc1nnc(CNC(=O)[C@@H]2C[C@H](NC(=O)C(C)(C)C)CN2C)[nH]1,-9.08
6,CC(C)N1CCCC(C(=O)NC(C)(C)c2nnc(N)s2)C1 (stereo not drawn),-12.2
7,Cc1cc(CN2C[C@@H]3COC[C@H](C(=O)N4CCCCO4)[C@@H]3C2)oc1C,-11
8,CN(Cc1ccc(F)cc1)C(=O)NCc1nnc2n1CCC2,-10.4
9,CCN1CCN(CCNC(=O)c2sc(C)nc2C)CC1,-5.81
10,COc1ccc(Cc2noc(C3=NN(C)C(=O)CC3)n2)cc1OC,-2.26
11,CN(CCOc1ccc(F)cc1)S(=O)(=O)N1CCOCC1,-9.68
12,COCCC(=O)NCCc1nc(N(C)C)ncc1-c1ccncc1,-3.62
13,Cc1cccc2c1nc1n2[C@@H](CNC(=O)Cc2ccccc2)COC1,-1.08
14,OC[C@@H](O)CN(CCC(F)(F)F)c1ncc(Br)cn1,14.1
15,COC(=O)CCC(=O)N1CCC2(CN(Cc3cccc(F)c3)C2)C1,0.281
16,O=C1CC(c2ccccc2)C2(CCN(C(=O)c3cnccn3)CC2)N1 (stereo not drawn),-8.06
17,O=C(NCCN1CCCC(CO)C1)c1ccc2scnc2c1 (stereo not drawn),-13.1
18,CC(=O)NCC(=O)NCC1(O)CCN(c2cnccn2)C1 (stereo not drawn),15.9
19,CCc1cnc(N2CCC3(CCN(CC)C3=O)CC2)nc1,-4.14
20,COCCn1cc(C(=O)N2CCCC2c2cc(C)on2)c2ccccc21 (stereo not drawn),1.11
21,O=C(CC1CC1)N1CCC2(CC1)CN(CCn1cccn1)C(=O)CO2,-4.82
